According to paper PMC10411625, “Rationally designed stapled peptides allosterically inhibit PTBP1–RNA-binding” (Chemical Science, 2023):

How the values were obtained:
[1] = biological target: T1, hnRNP A2/B1 (Homo sapiens, UniProt P22626); assay: Competitive fluorescence polarization assay, hnRNP A2/B1 and RNA-AB; type: binding; conditions: Fig. 3C; competitive FP, 10 nM hnRNPA2/B1, 1 nM Cy5-labeled RNA-AB, 25 mM HEPES pH 8.0; read-out: P-6 Ki, construct hnRNP A2/B1
T1 construct: (1-251); made in house; host or cells: E. coli BL21 (DE3) RIPL
T1 sequence (P22626 1-251, species assumed): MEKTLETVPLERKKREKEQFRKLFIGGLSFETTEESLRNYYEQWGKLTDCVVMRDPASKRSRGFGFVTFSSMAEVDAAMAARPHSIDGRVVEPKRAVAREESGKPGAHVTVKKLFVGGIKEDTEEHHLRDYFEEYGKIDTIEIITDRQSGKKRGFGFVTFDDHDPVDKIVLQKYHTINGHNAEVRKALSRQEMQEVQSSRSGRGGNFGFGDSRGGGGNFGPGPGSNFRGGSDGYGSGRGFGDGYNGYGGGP
Excerpt: (§1) The RRM domain is the most commonly occurring RNA-binding domain in the proteome making it challenging to find selective inhibitors.[23,46] Although various ligands have been described, their selectivity is rarely investigated, with an exception for the Musashi-1 inhibitor Ro 08-2750.[47–58] To investigate whether P-6 has an effect on the RNA-binding of other dual RRM containing proteins, we evaluated its inhibitory potency against another hnRNP protein (hnRNP A2/B1) as well as a splicing factor from the SR-protein class (SRSF1).[1] We evaluated P-6 in competitive fluorescence polarization assays using previously described RNAs recognized by these proteins.[59] […]
(§2) performed in FP bufferPTBP1. […]
(§3) serially diluted in the same buffer. […]
(§4) a final concentration of 10 nM probe. […]
(§5) the settings mentioned previously.
(§6) Fluorescence polarization assay with SRSF1
(§7) Fluorescence polarization was
(§8) Fluorescence polarization assay with hnRNPA2/B1
(§9) For the competitive assay 10 nM
(§10) Microscale thermophoresis […]
(§11) afterwards serially diluted into FP buffer.
(§12) The data was evaluated at […]
(§13) experiments were performed in duplicates.
(§14) Circular Dichroism Spectroscopy […]
(§15) secondary structure analysis with a reference data set. For experiments with PTBP1 constructs the […]

[2] = biological target: T2, SRSF1 (Homo sapiens, UniProt Q07955); assay: Competitive fluorescence polarization assay, SRSF1 and RNA-S; type: binding; conditions: Fig. 3C; competitive FP, 400 nM SRSF1, 1 nM Cy5-labeled RNA-S, pH 7.0; read-out: P-6 Ki, construct SRSF1
T2 construct: SRSF1-RRM12 (1-195); His tag (cleaved yes); made in house; host or cells: E. coli BL21 (DE3)
T2 sequence (Q07955 1-195, species assumed): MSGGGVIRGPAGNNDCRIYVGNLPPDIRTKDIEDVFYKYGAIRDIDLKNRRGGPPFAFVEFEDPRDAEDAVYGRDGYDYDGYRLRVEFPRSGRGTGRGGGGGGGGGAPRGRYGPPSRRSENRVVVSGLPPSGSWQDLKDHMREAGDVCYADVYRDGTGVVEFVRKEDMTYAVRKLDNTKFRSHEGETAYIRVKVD
Excerpt: as §1, §2, §3, §4, §5, §6, §7, §8, §9, §10, §11, §12, §13, §14, §15

[3] = system: HEK293T cells; assay: Cell viability assay (CellTiterGlo 2.0); type: cell-based; conditions: CellTiterGlo 2.0, concentrations of up to 300 μM
Procedure: protein was buffer exchanged into CD-Buffer using spin columns and measurements were performed in this buffer under similar conditions with protein concentrations of 0.2 mg/ml.
Co-Crystallisation of RRM1Δα3 with P-6
Protein construct RRM1Δα3 was purified using the protocol discussed above and concentrated to 14 mg/ml. P-6 was dissolved in SEC buffer and added in a 1.5 molar excess to the protein solution. After removal of particles by centrifugation (20000 x g, 4 °C, 10 min) sitting-drop experiments were set up by adding 200 nl of protein/ligand to 100 nl reservoir solution (1.89 M (NH4)2SO4, 0.1 M HEPES pH 6.86, 2% v/v PEG400) in MRC 3-drop plates. Sealed plates were incubated at 20 °C using a Formulatrix RockImager and crystals were obtained after several days. Prior to flash-freezing the crystals were cryo conserved by adding 0.5 µl reservoir solution containing 20% v/v glycerol to the drop.
X-ray data collection and processing
X-ray diffraction data was collected at X10SA (PXII) at Swiss Light Source. […]
HEK293T cells were seeded at 30000 cells/well in 75 µl DMEM supplemented with 10% FBS with 1x Pen-Strep (Gibco) in 96-well plates on the day prior the experiment. […] Cell viability was read out using CellTiterGlo 2.0 (Promega) according to the manufacturers protocol. Viability was calculated in % of signal normalized to the DMSO controls.

CC(=O)N[C@@H](CC(N)=O)C(=O)N[C@@H](CCC(N)=O)C(=O)N[C@@]1(C)CCCC=CCCCC2(CCCC=CCCC[C@](C)(C(=O)N[C@H](C(=O)N[C@@H](CC(N)=O)C(N)=O)C(C)C)NC(=O)[C@H](CCC(N)=O)NC(=O)[C@H](CC(C)C)NC(=O)[C@H](C)NC2=O)NC(=O)[C@H](CCC(N)=O)NC(=O)[C@H](C)NC(=O)[C@H](CCCNC(=N)N)NC1=O (stereo partly drawn) [Peptide P-6]
Ki [1]: > 1000 µM
Ki [2]: > 1000 µM
cell viability (in words) [3]: not affected
